Experimental findings from patent US11596692B1 (Incyte Corporation, priority 2018, dated 2023) are described below.

The test system of the assay is IRF3. Nature of the assay: IRF3 activation assay in THP-1 Dual cells. The format is cell-based. The note with it: Homo sapiens, read-out: THP1 IRF3 EC50. On the procedure:
THP-1 Dual Cells (Invivogen) were maintained in RPMI1640 medium with addition of 10% FBS, 100 μg/ml zeocin, 10 μg/ml blasticidin. Cells were added in a 96-well flat bottom assay plate at 100,000 per well in 100 μL complete RPMI medium. Test compounds were prepared by serial dilution in complete RPMI medium and 100 μL test compounds were transferred to each corresponding well. The assay plate was incubated at 37° C., 5% CO2 for 24 hours. After the overnight incubation, 20 μL of the culture supernatants were collected, followed by addition of 180 μL of QUANTI-Blue (Invivogen) to assess IRF3 activity. The amount of IRF3 activation was assessed by reading the absorbance at 620-655 nm with a microplate reader 2 hours later. The culture supernatant from the untreated THP-1 cells was used as the negative control. EC50 determination was performed by fitting the curve of percent control activity versus the log of the compound concentration using the GraphPad Prism 6.0 software.

Where two headings read alike, the source gives them in different places.

A word on the EC50: it is the concentration that produces a half-maximal response. As for `CCn1nc(C)cc1C(=O)Nc1nc2cc(C(N)=O)cc(OCCCNC(=O)CCC(=O)O)c2n1C/C=C/Cn1c2nc(-c3cc(C)nn3CC)ncc2c2cc(C(N)=O)cc(OCCCOC)c21` [Example S64, (E)-4-((3-((5-carbamoyl-1-(4-(6-carbamoyl-2-(1-ethyl-3-methyl-1H-pyrazol-5-yl)-8-(3-methoxypropoxy)-9H-pyrimido[4,5-b]indol-9-yl)but-2-en-1-yl)-2-(1-ethyl-3-methyl-1H-pyrazole-5-carboxamido)-1H-benzo[d]imidazol-7-yl)oxy)propyl)amino)-4-oxobutanoic acid], the EC50 (THP-1, Table 4C) lay in the range of 50 to 200 nM. As for `CCn1nc(C)cc1C(=O)Nc1nc2cc(C(N)=O)cc(OCCCOC)c2n1C/C=C/Cn1c2nc(-c3cc(C)nn3CC)ncc2c2cc(C(N)=O)cc(OCCCNC(=O)CCCC(=O)O)c21` [Example S55, (E)-5-(3-(6-carbamoyl-9-(4-(5-carbamoyl-2-(1-ethyl-3-methyl-1H-pyrazole-5-carboxamido)-7-(3-methoxypropoxy)-1H-benzo[d]imidazol-1-yl)but-2-enyl)-2-(1-ethyl-3-methyl-1H-pyrazol-5-yl)-9H-pyrimido[4,5-b]indol-8-yloxy)propylamino)-5-oxopentanoic acid], under “THP-1, Table 4C”, the EC50 is no more than 50 nM. In the case of `CCn1nc(C)cc1-c1ncc2c3cc(C(N)=O)cc(OCCCO)c3n(C/C=C/Cn3c4nc(-c5cc(C)nn5CC)ncc4c4cc(C(N)=O)cc(OCCCO)c43)c2n1` [Example S65, (E)-9,9′-(but-2-ene-1,4-diyl)bis(2-(1-ethyl-3-methyl-1H-pyrazol-5-yl)-8-(3-hydroxypropoxy)-9H-pyrimido[4,5-b]indole-6-carboxamide)], for the setting “THP-1, Table 4A”, the EC50 is no more than 100 nM.

On to `CCn1nc(C)cc1C(=O)Nc1nc2cc(C(N)=O)cc(OCCCO)c2n1C/C=C/Cn1c2ccc(C(N)=O)cc2c2cnc(-c3cc(C)nn3CC)nc21` [Example S18, (E)-9-(4-(5-carbamoyl-2-(1-ethyl-3-methyl-1H-pyrazole-5-carboxamido)-7-(3-hydroxypropoxy)-1H-benzo[d]imidazol-1-yl)but-2-en-1-yl)-2-(1-ethyl-3-methyl-1H-pyrazol-5-yl)-9H-pyrimido[4,5-b]indole-6-carboxamide], for which the EC50 by setting is: (THP-1, Table 4A) no more than 100 nM; (THP-1, Table 4B) less than 200 nM; (THP-1, Table 4C) no more than 50 nM. With `CCn1nc(C)cc1C(=O)Nc1nc2cc(C(N)=O)cc(C)c2n1C/C=C/Cn1c2ccc(C(N)=O)cc2c2cnc(-c3cc(C)nn3CC)nc21` [Example S1, (E)-9-(4-(5-carbamoyl-2-(1-ethyl-3-methyl-1H-pyrazole-5-carboxamido)-7-methyl-1H-benzo[d]imidazol-1-yl)but-2-enyl)-2-(1-ethyl-3-methyl-1H-pyrazol-5-yl)-9H-pyrimido[4,5-b]indole-6-carboxamide], the EC50 is 500 to 1000 nM (THP-1, Table 4A); less than 1000 nM (THP-1, Table 4B); 50 to 200 nM (THP-1, Table 4C). For the compound `CCn1nc(C)cc1C(=O)Nc1nc2cc(C(N)=O)cc(OCCCN)c2n1C/C=C/Cn1c2nc(-c3cc(C)nn3CC)ncc2c2cc(C(N)=O)cc(OCCCOC)c21` [Example S38, (E)-9-(4-(7-(3-aminopropoxy)-5-carbamoyl-2-(1-ethyl-3-methyl-1H-pyrazole-5-carboxamido)-1H-benzo[d]imidazol-1-yl)but-2-en-1-yl)-2-(1-ethyl-3-methyl-1H-pyrazol-5-yl)-8-(3-methoxypropoxy)-9H-pyrimido[4,5-b]indole-6-carboxamide], the half-maximal effective concentration (EC50) (THP-1, Table 4C) was in the range of 500 to 1000 nM. `CCn1nc(C)cc1C(=O)Nc1nc2cc(C(N)=O)cc(OCCOC(=O)c3cc(C)nn3CC)c2n1C/C=C/Cn1c2nc(-c3cc(C)nn3CC)ncc2c2cc(C(N)=O)cc(OCCCOC)c21` [Example S40, (E)-2-((5-carbamoyl-1-(4-(6-carbamoyl-2-(1-ethyl-3-methyl-1H-pyrazol-5-yl)-8-(3-methoxypropoxy)-9H-pyrimido[4,5-b]indol-9-yl)but-2-en-1-yl)-2-(1-ethyl-3-methyl-1H-pyrazole-5-carboxamido)-1H-benzo[d]imidazol-7-yl)oxy)ethyl 1-ethyl-3-methyl-1H-pyrazole-5-carboxylate]: under “THP-1, Table 4C”, the EC50 was no more than 50 nM. For the compound `CCn1nc(C)cc1-c1ncc2c3cc(C(N)=O)cc(OC)c3n(C/C=C/Cn3c4nc(-c5cc(C)nn5CC)ncc4c4cc(C(N)=O)cc(OC)c43)c2n1` [Example S29, (E)-9,9′-(but-2-ene-1,4-diyl)bis(2-(1-ethyl-3-methyl-1H-pyrazol-5-yl)-8-methoxy-9H-pyrimido[4,5-b]inclole-6-carboxamide)], the EC50 (THP-1, Table 4A) was no more than 100 nM. Take `CCCn1nc(C)cc1-c1ncc2c3cc(C(N)=O)ccc3n(C/C=C/Cn3c(NC(=O)c4cc(C)nn4CC)nc4cc(C(N)=O)cc(C)c43)c2n1` [Example S6, (E)-9-(4-(5-carbamoyl-2-(1-ethyl-3-methyl-1H-pyrazole-5-carboxamido)-7-methyl-1H-benzo[d]imidazol-1-yl)but-2-enyl)-2-(3-methyl-1-propyl-1H-pyrazol-5-yl)-9 H-pyrimido[4,5-b]indole-6-carboxamide]: the EC50 by setting is: (THP-1, Table 4A) no more than 100 nM; (THP-1, Table 4B) less than 200 nM; (THP-1, Table 4C) no more than 50 nM. Turning to `CCn1nc(C)cc1C(=O)Nc1nc2cc(C(N)=O)cc(OCCCOC)c2n1C/C=C/Cn1c2nc(-c3cc(C)nn3CC)ncc2c2cc(C(N)=O)cc(OCCCOC(=O)NCCC(=O)O)c21` [Example S57, (E)-3-((3-(6-carbamoyl-9-(4-(5-carbamoyl-2-(1-ethyl-3-methyl-1H-pyrazole-5-carboxamido)-7-(3-methoxypropoxy)-1H-benzo[d]imidazol-1-yl)but-2-enyl)-2-(1-ethyl-3-methyl-1H-pyrazol-5-yl)-9H-pyrimido[4,5-b]indol-8-yloxy)propoxy)carbonylamino)propanoic acid], for the setting “THP-1, Table 4C”, the EC50 lay within 50 to 200 nM.

For `CCn1nc(C)cc1C(=O)Nc1nc2cc(C(N)=O)cc(OC)c2n1C/C=C/Cn1c(NC(=O)c2cc(C)nn2CC)nc2cc(C(N)=O)cc(OCCCNC(C)=O)c21` [Example S33, (E)-7-(3-acetamidopropoxy)-1-(4-(5-carbamoyl-2-(1-ethyl-3-methyl-1H-pyrazole-5-carboxamido)-7-methoxy-1H-benzo[d]imidazol-1-yl)but-2-en-1-yl)-2-(1-ethyl-3-methyl-1H-pyrazole-5-carboxamido)-1H-benzo[d]imidazole-5-carboxamide], the EC50 (THP-1, Table 4A) is no more than 100 nM. As for `CCn1nc(C)cc1C(=O)Nc1nc2cc(C(N)=O)cc(C)c2n1C/C=C/Cn1c2nc(-c3cc(C)nn3CC)ccc2c2cc(C(N)=O)cc(OC)c21` [Example S14, (E)-9-(4-(5-carbamoyl-2-(1-ethyl-3-methyl-1H-pyrazole-5-carboxamido)-7-methyl-1H-benzo[d]imidazol-1-yl)but-2-enyl)-2-(1-ethyl-3-methyl-1H-pyrazol-5-yl)-8-methoxy-9H-pyrido[2,3-b]indole-6-carboxamide], the EC50 reads like this: (THP-1, Table 4A) no more than 100 nM; (THP-1, Table 4B) less than 200 nM; (THP-1, Table 4C) no more than 50 nM. With `CCn1nc(C)cc1C(=O)Nc1nc2cc(C(N)=O)cc(OCCCNC(=O)NCC(=O)O)c2n1C/C=C/Cn1c2nc(-c3cc(C)nn3CC)ncc2c2cc(C(N)=O)cc(OCCCOC)c21` [Example S46, (E)-((3-((5-carbamoyl-1-(4-(6-carbamoyl-2-(1-ethyl-3-methyl-1H-pyrazol-5-yl)-8-(3-methoxypropoxy)-9H-pyrimido[4,5-b]indol-9-yl)but-2-en-1-yl)-2-(1-ethyl-3-methyl-1H-pyrazole-5-carboxamido)-1H-benzo[d]imidazol-7-yl)oxy)propyl)carbamoyl)glycine], where the note is “THP-1, Table 4C”, the EC50 was no more than 50 nM. Consider `CCn1nc(C)cc1C(=O)Nc1nc2cc(C(N)=O)cc(OCCCNC(=O)CCCC(=O)O)c2n1C/C=C/Cn1c2nc(-c3cc(C)nn3CC)ncc2c2cc(C(N)=O)cc(OCCCOC)c21` [Example S39, (E)-5-((3-((5-carbamoyl-1-(4-(6-carbamoyl-2-(1-ethyl-3-methyl-1H-pyrazol-5-yl)-8-(3-methoxypropoxy)-9H-pyrimido[4,5-b]indol-9-yl)but-2-en-1-yl)-2-(1-ethyl-3-methyl-1H-pyrazole-5-carboxamido)-1H-benzo[d]imidazol-7-yl)oxy)propyl)amino)-5-oxopentanoic acid], for which, where the note is “THP-1, Table 4C”, the EC50 is no more than 50 nM. Consider `CCn1nc(C)cc1C(=O)Nc1nc2cc(C(N)=O)cc(OCCCOC(=O)c3cc(C)nn3CC)c2n1C/C=C/Cn1c2nc(-c3cc(C)nn3CC)ncc2c2cc(C(N)=O)cc(OC)c21` [Example S15, (E)-3-((5-carbamoyl-1-(4-(6-carbamoyl-2-(1-ethyl-3-methyl-1H-pyrazol-5-yl)-8-methoxy-9H-pyrimido[4,5-b]indol-9-yl)but-2-en-1-yl)-2-(1-ethyl-3-methyl-1H-pyrazole-5-carboxamido)-1H-benzo[d]imidazol-7-yl)oxy)propyl 1-ethyl-3-methyl-1H-pyrazole-5-carboxylate], for which the EC50 (THP-1, Table 4A) is no more than 100 nM; the EC50 (THP-1, Table 4B) is less than 200 nM; the EC50 (THP-1, Table 4C) is no more than 50 nM. Take `CCn1nc(C)cc1C(=O)Nc1nc2cc(C(N)=O)cc(C)c2n1C/C=C/Cn1c2ccc(C(N)=O)cc2c2ccc(-c3cc(C)nn3CC)nc21` [Example S5, (E)-9-(4-(5-carbamoyl-2-(1-ethyl-3-methyl-1H-pyrazole-5-carboxamido)-7-methyl-1H-benzo[d]imidazol-1-yl)but-2-en-1-yl)-2-(1-ethyl-3-methyl-1H-pyrazol-5-yl)-9H-pyrido[2,3-b]indole-6-carboxamide]: the EC50 was no more than 100 nM (THP-1, Table 4A); less than 1000 nM (THP-1, Table 4B); 50 to 200 nM (THP-1, Table 4C).
